Data published in patent publication US7655392B2, “Quenching methods for red blood cell inactivation process” (priority 2004, dated 2010).
Read-outs that look alike come from different tables or passages of the source.

Test system: red blood cells
Format: cell-based
Protocol: In another assay, the rabbit polyclonal sera may be reacted with treated red blood cells. After washing off unbound antibody, a FITC labeled goat anti-rabbit Fab′2 fragment (anti H+L chains, Caltag) is added. The binding of FITC label to the red blood cells correlates with the amount of acridine bound to the red blood cell surface, and is assessed by FACScan™ analysis (Becton, Dickinson and Co., NJ). The relative modification of the red blood cells is determined from the FACScan™ mean fluorescence value.
A 20 mL sample of leukoreduced whole blood (Blood Source, Sacramento, Calif.) was centrifuged at 4,100×g for 5 minutes at room temperature in each of four 50 mL centrifuge tubes. The supernatant was removed from each tube to provide red cell concentrate (RCC). […] For each washed RCC, cells were resuspended in 5 mL of the solution used for washing. This is now referred to as the RBC test sample. […] These samples were incubated for 20 hours at room temperature. After incubation, the RBC were washed in BBS (Blood Bank Saline, 0.9% saline, unbuffered, Fisher Scientific) and were diluted to a final hematocrit of 4%. A 25 μL aliquot of each was mixed with 15 μL of rabbit polyclonal anti-acridine sera diluted 1:100 in BBS and the mixture was incubated at 37° C. for 30 minutes. The cells were subsequently washed with 1.5 mL BBS. After washing was complete, the cells were mixed with 50 μL of FITC labeled goat anti-rabbit Fab′2 fragment (1:64 dilution in BBS) and incubated at 37° C. for 30 minutes. […] Note that the quenching improves as glutathione is neutralized with increasing amounts of sodium hydroxide.
The FACScan analysis of the binding of rabbit anti-acridine sera to treated red cells was used to assess a variety of quenching conditions. […] The tables represent data from two different experiments, each with samples treated under standard conditions or with 20 mM neutralized glutathione. […] The data within an experiment provides the relative efficacy of the various treatments. Because the assay may depend on the lot of red blood cells used, the absolute values of mean fluorescence may vary from one study to the next, such that relative values should only be compared within a given experiment. […] Neutralized glutathione at 20 mM results in close to background levels.
An untreated control sample as well as a standard sample (co-addition of 2 mM acidic glutathione with 0.2 mM PIC-1) were also assessed.
Full units of red cell concentrates (Interstate Blood Bank, Inc., Memphis, Tenn.) were leukoreduced. A volume of 200 mL of this RCC (80% hematocrit) was mixed with 94 mL of Erythrosol or 100 mL of Adsol (Baxter Healthcare Corp., Deerfield, Ill.) as control (unit 1). A volume of 20 mL 8% dextrose was used to dissolve PIC-1 (mg) and acid glutathione (mg) and added to one unit to provide 0.2 mM PIC-1 and 2 mM glutathione (unit 2). […] For the glutathione, 1.2 mL of 10 N NaOH was added (2 equivalents). The PIC-1 was mixed with the unit, followed 1 minute later (unit 3) or 5 minutes later (unit 4) by glutathione. For unit 5, neutralized glutathione was mixed first, followed 10 minutes later by the PIC-1. […] All units were mixed by grasping the ends of the blood bag and mixing in a FIG. 8 motion 30 times. These were then incubated at room temperature for 20 hours total. A compound adsorption device (CAD), comprising a polymeric resin contained within a mesh pouch, was used for all but the control sample. This device is intended to remove residual PIC-1, PIC-1 breakdown products, and glutathione from the samples. Samples were incubated for 8 hours, then transferred to a second blood bag containing the CAD and incubated for an additional 12 hours. Following the room temperature incubation, samples were transferred to a refrigerator (4° C.) and stored up to 43 days.

O=C(CCNc1c2ccccc2nc2ccccc12)OCCN(CCCl)CCCl [PIC-1]
mean fluorescence (16C day 0.8, unit 2: standard 0.2 mM PIC-1+2 mM GSH): 284
mean fluorescence (16C day 0.8, unit 3: 0.2 mM PIC-1, 1' delay, 20 mM GSH+2 eq base): 20.1
mean fluorescence (16C day 0.8, unit 4: 0.2 mM PIC-1, 5' delay, 20 mM GSH+2 eq base): 46.0
mean fluorescence (16C day 0.8, unit 5: 20 mM GSH+2 eq base, 10' delay, 0.2 mM PIC-1): 20.0
mean fluorescence (16C day 2, unit 2: standard 0.2 mM PIC-1+2 mM GSH): 193.5
mean fluorescence (16C day 2, unit 3: 0.2 mM PIC-1, 1' delay, 20 mM GSH+2 eq base): 14.58
mean fluorescence (16C day 2, unit 4: 0.2 mM PIC-1, 5' delay, 20 mM GSH+2 eq base): 34.07
mean fluorescence (16C day 2, unit 5: 20 mM GSH+2 eq base, 10' delay, 0.2 mM PIC-1): 12.31
mean fluorescence (16C day 7, unit 2: standard 0.2 mM PIC-1+2 mM GSH): 142.1
mean fluorescence (16C day 7, unit 3: 0.2 mM PIC-1, 1' delay, 20 mM GSH+2 eq base): 4.96
mean fluorescence (16C day 7, unit 4: 0.2 mM PIC-1, 5' delay, 20 mM GSH+2 eq base): 18.84
mean fluorescence (16C day 7, unit 5: 20 mM GSH+2 eq base, 10' delay, 0.2 mM PIC-1): 5.34
mean fluorescence (16C day 14, unit 2: standard 0.2 mM PIC-1+2 mM GSH): 135.7
mean fluorescence (16C day 14, unit 3: 0.2 mM PIC-1, 1' delay, 20 mM GSH+2 eq base): 4.09
mean fluorescence (16C day 14, unit 4: 0.2 mM PIC-1, 5' delay, 20 mM GSH+2 eq base): 8.41
mean fluorescence (16C day 14, unit 5: 20 mM GSH+2 eq base, 10' delay, 0.2 mM PIC-1): 3.29
mean fluorescence (16C day 22, unit 2: standard 0.2 mM PIC-1+2 mM GSH): 90.8
mean fluorescence (16C day 22, unit 3: 0.2 mM PIC-1, 1' delay, 20 mM GSH+2 eq base): 2.61
mean fluorescence (16C day 22, unit 4: 0.2 mM PIC-1, 5' delay, 20 mM GSH+2 eq base): 4.46
mean fluorescence (16C day 22, unit 5: 20 mM GSH+2 eq base, 10' delay, 0.2 mM PIC-1): 2.12
mean fluorescence (16C day 28, unit 2: standard 0.2 mM PIC-1+2 mM GSH): 128.7
mean fluorescence (16C day 28, unit 3: 0.2 mM PIC-1, 1' delay, 20 mM GSH+2 eq base): 2.6
mean fluorescence (16C day 28, unit 4: 0.2 mM PIC-1, 5' delay, 20 mM GSH+2 eq base): 5.69
mean fluorescence (16C day 28, unit 5: 20 mM GSH+2 eq base, 10' delay, 0.2 mM PIC-1): 2.83
mean fluorescence (16C day 35, unit 2: standard 0.2 mM PIC-1+2 mM GSH): 153.4
mean fluorescence (16C day 35, unit 3: 0.2 mM PIC-1, 1' delay, 20 mM GSH+2 eq base): 2.74
mean fluorescence (16C day 35, unit 4: 0.2 mM PIC-1, 5' delay, 20 mM GSH+2 eq base): 6.71
mean fluorescence (16C day 35, unit 5: 20 mM GSH+2 eq base, 10' delay, 0.2 mM PIC-1): 2.58
mean fluorescence (16C day 43, unit 2: standard 0.2 mM PIC-1+2 mM GSH): 136.1
mean fluorescence (16C day 43, unit 3: 0.2 mM PIC-1, 1' delay, 20 mM GSH+2 eq base): 2.43
mean fluorescence (16C day 43, unit 4: 0.2 mM PIC-1, 5' delay, 20 mM GSH+2 eq base): 4.51
mean fluorescence (16C day 43, unit 5: 20 mM GSH+2 eq base, 10' delay, 0.2 mM PIC-1): 2.46
Mean fluorescence intensity (RBC CHES pH 9 3x wash, 0.2 mM PIC-1, 2 mM GSH): 12.1
Mean fluorescence intensity (RBC CHES pH 9 3x wash, 0.2 mM PIC-1, 20 mM GSH+0.9 eq NaOH): 3.9
Mean fluorescence intensity (RBC CHES pH 9 3x wash, 0.2 mM PIC-1, 20 mM GSH+1.5 eq NaOH): 1.9
Mean fluorescence intensity (RBC CHES pH 9 3x wash, 0.2 mM PIC-1, 20 mM GSH+2 eq NaOH): 1.9
Mean fluorescence intensity (RBC Erythrosol pH 7.3 3x wash, 0.2 mM PIC-1, 2 mM GSH): 199
Mean fluorescence intensity (RBC Erythrosol pH 7.3 3x wash, 0.2 mM PIC-1, 20 mM GSH+0.9 eq NaOH): 26.7
Mean fluorescence intensity (RBC Erythrosol pH 7.3 3x wash, 0.2 mM PIC-1, 20 mM GSH+1.5 eq NaOH): 4.9
Mean fluorescence intensity (RBC Erythrosol pH 7.3 3x wash, 0.2 mM PIC-1, 20 mM GSH+2 eq NaOH): 3.4
Mean fluorescence intensity (RBC PBS pH 8 3x wash, 0.2 mM PIC-1, 2 mM GSH): 25
Mean fluorescence intensity (RBC PBS pH 8 3x wash, 0.2 mM PIC-1, 20 mM GSH+0.9 eq NaOH): 7.2
Mean fluorescence intensity (RBC PBS pH 8 3x wash, 0.2 mM PIC-1, 20 mM GSH+1.5 eq NaOH): 5.1
Mean fluorescence intensity (RBC PBS pH 8 3x wash, 0.2 mM PIC-1, 20 mM GSH+2 eq NaOH): 5.1
